# Patent US5886178A, “3-aroylbenzylpyridazinone derivatives” (Syntex (U.S.A.) Inc., priority 1997, dated 1999)
# pIC50: −log10 of the molar value.
# Tests used:
# [1] = tested on: prostaglandin E2 synthesis; experiment: Inhibition of eicosanoid (PGE2) synthesis in vivo, carrageenan air-pouch model in rats; set-up: species or system rat; settings: oral, male rats
# Procedure: In this assay, an air-pouch is created in the rat and the PGE2 levels in the air-pouch exudate are measured by enzyme immunoassay. Briefly, male rats were anesthetized using a 60:40 CO2 :O2 mixture and subsequently injected subcutaneously with 20 ml of sterilized air, under aseptic conditions, in the proximal area of the dorsum. This injection of sterile air causes the creation of a subcutaneous "air pouch". The next day, a further 10 ml of sterile air was injected into the previously formed pouch using the same technique. […] Control rats received vehicle alone. After 30 minutes, 5 ml of a 0.5% solution of carrageenan (Sigma, Lambda Type IV) was injected into the air pouch. The rats were euthanized 3 hr after the compound administration. […] The total exudate volume was recorded, and the samples were analyzed for PGE2 and 6-keto PGF1 by ELISA (Titerzyme®, PerSeptive Diagnostics) and TxB2 by radioimmuno assay (New England Nuclear Research, Catalog No. NEK-037), according to the manufacturer's directions.
# The mean concentrations of PGE2 were calculated for each group. The anti-inflammatory activity of test materials is expressed as the percent inhibition of PGE2 formation in the test group relative to the control group.
# COX II [2] = molecular target: T1, COX II (Homo sapiens, UniProt P35354); experiment: Inhibition of COX II in vitro, partially purified enzyme, radiometric assay; type: biochemical; set-up: made in house; settings: 20 micromolar arachidonic acid
# T1 sequence (P35354 18-604): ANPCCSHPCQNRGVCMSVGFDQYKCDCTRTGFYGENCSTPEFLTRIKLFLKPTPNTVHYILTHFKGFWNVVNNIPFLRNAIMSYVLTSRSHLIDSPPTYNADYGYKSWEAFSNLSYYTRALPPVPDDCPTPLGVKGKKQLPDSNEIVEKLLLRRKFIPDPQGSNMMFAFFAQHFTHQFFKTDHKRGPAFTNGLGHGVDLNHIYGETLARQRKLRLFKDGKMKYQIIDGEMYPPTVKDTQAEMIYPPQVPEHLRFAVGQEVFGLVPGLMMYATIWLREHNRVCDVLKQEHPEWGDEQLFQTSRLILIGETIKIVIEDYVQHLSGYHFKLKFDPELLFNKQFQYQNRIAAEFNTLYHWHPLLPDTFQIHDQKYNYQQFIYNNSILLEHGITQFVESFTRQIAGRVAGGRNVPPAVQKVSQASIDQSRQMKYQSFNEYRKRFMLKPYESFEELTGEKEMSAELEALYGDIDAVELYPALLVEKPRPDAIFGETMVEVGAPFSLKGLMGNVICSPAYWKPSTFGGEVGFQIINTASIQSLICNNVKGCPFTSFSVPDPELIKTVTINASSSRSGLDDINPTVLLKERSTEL
# Procedure: (§1) The COX I and COX II inhibitory activity of compounds of this invention in vitro was determined using partially purified COX I and COX II enzymes, prepared as described in J. Barnett et al, Biochim. Biophys.
# (§2) COX I and COX II samples were diluted with Tris-HCl buffer (50 mM Tris-HCl, pH 7.9) containing 2 mM EDTA and 10% glycerol and reconstituted by incubating first with 2 mM phenol for 5 minutes and then with 1 micromolar hematin for an additional 5 minutes. 125 μl of the reconstituted COX I or COX II enzyme were preincubated for 10 minutes at room temperature in a shaking water bath with the compounds of the invention dissolved in 2-15 μl of DMSO or the carrier vehicles (control samples). The enzyme reaction was initiated by adding 25 μl of 1-[14C]arachidonic acid (80,000-100,000 cpm/tube; 20 micromolar final concentration) and the reaction was allowed to continue for an additional 45 seconds. The reaction was terminated by adding 100 μl of 2N HCl and 750 μl water. An aliquot (950 μl) of the reaction mixture was loaded onto a 1 ml C18 Sep-Pak column (J. T. Baker, Phillipsburg, N.J.) which had been previously washed with 2-3 ml methanol and equilibrated with 5-6 ml distilled water. Oxygenated products were quantitatively eluted with 3 ml of acetonitrile/water/acetic acid (50:50:0.1, v/v) and the radioactivity in the eluate determined in a scintillation counter.
# COX I [3] = molecular target: T2, COX I (Homo sapiens, UniProt P23219); experiment: Inhibition of COX I in vitro, partially purified enzyme, radiometric assay; type: biochemical; set-up: made in house; settings: 20 micromolar arachidonic acid
# T2 sequence (P23219 24-599): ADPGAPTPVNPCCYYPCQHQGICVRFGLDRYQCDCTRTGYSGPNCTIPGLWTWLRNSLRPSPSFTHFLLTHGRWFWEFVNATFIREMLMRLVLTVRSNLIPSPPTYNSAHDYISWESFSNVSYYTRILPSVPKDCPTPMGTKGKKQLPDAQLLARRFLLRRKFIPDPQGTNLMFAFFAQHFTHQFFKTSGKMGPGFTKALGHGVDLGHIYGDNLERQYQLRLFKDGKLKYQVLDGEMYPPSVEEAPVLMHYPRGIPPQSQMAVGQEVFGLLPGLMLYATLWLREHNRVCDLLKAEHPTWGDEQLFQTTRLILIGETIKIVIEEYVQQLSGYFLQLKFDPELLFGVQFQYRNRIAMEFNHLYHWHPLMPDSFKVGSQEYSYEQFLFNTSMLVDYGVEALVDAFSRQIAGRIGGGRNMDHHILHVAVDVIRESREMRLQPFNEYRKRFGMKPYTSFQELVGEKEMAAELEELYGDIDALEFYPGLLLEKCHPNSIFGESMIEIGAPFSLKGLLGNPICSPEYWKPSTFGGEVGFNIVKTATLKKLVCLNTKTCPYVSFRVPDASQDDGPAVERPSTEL
# Procedure: as §1, §2
# COX II [4] = molecular target: T1, COX II; experiment: Inhibition of COX II in a cell based assay (human foreskin fibroblasts, PGE2 ELISA); set-up: host or cells: primary human foreskin fibroblasts (HFF), induced with PMA and human interleukin-1; settings: human foreskin fibroblasts (HFF)
# Procedure: (§3) The COX I and COX II inhibitory activity of compounds of this invention in a cell based assay was determined as described below.
# The inhibitory activity of test compounds against cell associated COX-2 was measured using primary cultures of human foreskin fibroblasts (HFF). HFF cultures were obtained from ATCC, grown in DMEM medium (Gibco) and used between 13-30 passages. Cells were plated in 96-well microtiter plates at a density of 6-8×10^4 cells/well in DMEM containing 10% fetal calf serum (Sigma) and cultured at 37° C. until they became confluent. The medium was removed and the cells were washed once with PBS. COX-2 activity was induced by incubating the cells with fresh DMEM containing 0.1 μM phorbol 12-myristate 13-acetate (PMA, Sigma) and 1ng/ml of human interleukin-1 (Sigma) at 37° C. After 16 h the medium was removed and the cells were washed twice with phosphate buffered saline (PBS, Gibco). 200 μl/well of fresh medium containing desired concentrations of the test compounds in DMSO, or the carrier vehicle (control wells) was added and the cells incubated at 37° C. for 30 minutes; after which 5 μM calcium ionophore A23187 (Sigma) was added and the incubation was continued for an additional 10 minutes. The reaction was terminated by transferring the plates to ice. The culture supernatants were transferred and appropriately diluted, and the amount of prostaglandin E2 (PGE2) present in each supernatant was quantitated using an ELISA kit (Cayman Chemicals).
# (§4) The COX I and COX II inhibitory activities in the cell based assay (expressed as IC50) of some compounds of the invention were: […]
# [5] = Carrageenan-induced paw edema in the rat (anti-inflammatory activity); type: in vivo; settings: 3 h, 30 mg/Kg, oral, female rats, read-out: % inhibition of increase in hind paw weight
# Procedure: The anti-inflammatory activity of compounds of this invention was determined by measuring the inhibition of carrageenan-induced paw edema in the rat, using a modification of the method described in Winter C. k et al (1962) "Carrageenan-Induced Edema in Hind Paw of the Rat as an Assay for Anti-inflammatory Drugs". Proc. Soc. Exp. Biol. Med. 111: 544-547. This assay has been used as a primary in vivo screen for anti-inflammatory activity of most NSAIDs, and is considered predictive of human efficacy. Briefly, test materials were administered orally to female rats in a volume of 1 ml prepared as solutions or suspensions in an aqueous vehicle containing 0.9% NaCl, 0.5% sodium carboxymethyl-cellulose, 0.4% polysorbate 80, 0.9% benzyl alcohol and 97.3% distilled water. Control rats received vehicle alone. After 1 hr 0.05 ml of a 0.5% solution of Carrageenan (Type IV Lambda, Sigma Chemical Co.) in 0.9% saline was injected into the subplantar region of the right hind paw. Three hours later the rats were euthanized in a carbon dioxide atmosphere; hind paws were removed by severing at the tatso-crural joint; and the left and right paws were weighed. The increase in weight of the right paw over the left paw was obtained for each animal and the mean increases were calculated for each group. The anti-inflammatory activity of the test materials is expressed as the percent inhibition of the increase in hind paw weight of the test group relative to the vehicle-dosed control group.
# The anti-inflammatory activities (expressed as % inhibition) of some of the compounds of the invention were: […]
# COX I [6] = molecular target: T2, COX I; experiment: Inhibition of COX I in a cell based assay (human promonocytic THP cells, TXB2 ELISA); set-up: endogenous in cells; host or cells: human promonocytic THP cells, PMA-treated
# Procedure: as §3
# The inhibitory activity of the test compounds against cell associated COX-1 was measured using human promonocytic THP cells. Cells were plated in 96-well microtiter plates at a density of 8×10^4 cells/well in RPMI-1640 medium (Gibco). COX-1 activity was initiated by incubating the cells with 0.1μM phorbol 12-myristate 13-acetate (PMA, Sigma) in dimethyl sulfoxide (DMSO, Aldrich) at 37° C. After 40-48 hours, the medium was removed, and the cells were washed twice with phosphate buffered saline (PBS, Gibco). 225 μl/well of fresh medium containing desired concentrations of the test compounds in DMSO, or the carrier vehicles (control wells), was added and the cells incubated at 37° C. for 30 minutes; after which 5 μM calcium ionophore A23187 (Sigma) was added and the incubation was continued for an additional 10 minutes. The reaction was terminated by transferring the plates to ice. The culture supernatants were transferred and appropriately diluted and the amount of thromboxane B2 (TXB2) present in each supernatant was quantitated using an ELISA kit (Cayman Chemicals).
# as §4
pIC50 (COX II [2]),pIC50 (COX I [3]),pIC50 (COX II [4]),pIC50 (COX I [6]),SMILES,% inhibition of air pouch PGE2 formation ([1]; 10 mg/Kg) [%],inhibition in vivo at 30 mg/kg [5] [%],% inhibition of air pouch PGE2 formation ([1]; 30 mg/Kg) [%]
,,,,"CSc1ccc(C(=O)c2cccc(Cc3ccc(=O)[nH]n3)c2Cl)cc1 [Cpd 5, 6-[3-(4-methylthio-benzoyl)-2-chlorobenzyl]-2H-pyridazin-3-one]",32,,
5.70,3.13,6.52,,"O=C(c1cccc(Cc2ccc(=O)[nH]n2)c1)c1c(Cl)cc(Cl)cc1Cl [Cpd 78, 6-[3-(2,4,6-trichlorobenzoyl)benzyl]-2H-pyridazin-3-one]",,22,
5.89,3.00,5.40,,"COc1ccc(C(=O)c2c(Cl)cc(Cl)cc2Cl)cc1Cc1ccc(=O)n(C)n1 [Cpd 31, 6-[3-(2,4,6-trichlorobenzoyl)-6-methoxybenzyl]-2-methyl-2H-pyridazin-3-one]",,38,
6.00,4.00,6.00,4.59,"COc1ccc(C(=O)c2c(Br)cc(C)cc2Br)cc1Cc1ccc(=O)[nH]n1 [Cpd 39, 6-[3-(2,6-dibromo-4-methylbenzoyl)-6-methoxybenzyl]-2H-pyridazin-3-one]",,33,
,,,,"CSc1ccc(C(=O)c2cccc(Cc3ccc(=O)[nH]n3)c2C)cc1 [Cpd 10, 6-[3-(4-methylthiobenzoyl)-2-methylbenzyl]-2H-pyridazin-3-one]",24,,
5.70,4.00,5.47,,"COc1ccc(C(=O)c2c(Cl)cc(C)cc2Cl)cc1Cc1ccc(=O)[nH]n1 [Cpd 28, 6-[3-(2,6-dichloro-4-methylbenzoyl)-6-methoxybenzyl]-2H-pyridazin-3-one]",,21,
5.89,4.00,5.92,4.80,"COc1ccc(C(=O)c2c(C)cc(C)cc2C)cc1Cc1ccc(=O)[nH]n1 [Cpd 44, 6-[3-(2,4,6-trimethylbenzoyl)-6-methoxybenzyl]-2H-pyridazin-3-one]",,19,
6.22,3.27,6.52,4.72,"COc1ccc(C(=O)c2c(Cl)cc(Cl)cc2Cl)cc1Cc1ccc(=O)[nH]n1 [Cpd 26, 6-[3-(2,4,6-trichlorobenzoyl)-6-methoxybenzyl]-2H-pyridazin-3-one]",,24,
6.74,3.52,6.52,,"Cc1ccc(C(=O)c2c(Cl)cc(Cl)cc2Cl)cc1Cc1ccc(=O)n(C)n1 [Cpd 62, 6-[3-(2,4,6-trichlorobenzoyl)-6-methylbenzyl]-2-methyl-2H-pyridazin-3-one]",,33,
6.80,3.37,6.70,4.68,"O=C(c1ccc(Cl)c(Cc2ccc(=O)[nH]n2)c1)c1c(Cl)cc(Cl)cc1Cl [Cpd 73, 6-[3-(2,4,6-trichlorobenzoyl)-6-chlorobenzyl]-2H-pyridazin-3-one]",,33,
6.85,3.52,7.52,4.77,"O=C(c1ccc(F)c(Cc2ccc(=O)[nH]n2)c1)c1c(Cl)cc(Cl)cc1Cl [Cpd 77, 6-[3-(2,4,6-trichlorobenzoyl)-6-fluorobenzyl]-2H-pyridazin-3-one]",,,53
6.74,3.51,6.32,,"Cc1ccc(C(=O)c2c(Cl)cc(Cl)cc2Cl)cc1Cc1ccc(=O)[nH]n1 [Cpd 61, 6-[3-(2,4,6-trichlorobenzoyl)-6-methylbenzyl]-2H-pyridazin-3-one]",,,
